Test results taken from PubChem BioAssay AID1919015 (Molecular Pharmacology Branch, DTP, NCI, 2023).
Where “and” joins values, the source holds several entries; their conditions need not be identical. Equal entries are not always repeated.

Test system: OVCAR-5 complex spheroids with HUVEC/MSC, viability, % test/control
Experiment: Anticancer human tumor OVCAR-5 cell line growth inhibition [AhR];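 note: spheroids exposed to compounds for 7 days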;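 for viability, T/C: 100% = DMSO vehicle control wells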
Conditions: for viability, T/C: stronger effect = lower value
Text: Multicellular complex tumor spheroid response to aryl hydrocarbon receptor antagonists in combination with a variety of drugs and investigational agents in selected tumor cell lines
The current study was undertaken to assess response to aryl hydrocarbon receptor antagonists in combination with standard-of-care drugs and investigational agents in solid tumor complex spheroid models. Complex spheroids include a stromal component modeled by human endothelial cells (HUVEC) and fibroblasts modeled by human mesenchymal stem cells (MSCs). The concentration ranges selected for each drug and investigational agent were based upon clinically achievable concentrations if the clinical Cmax of the agent was known.
Compounds. The drugs and investigational agents: BAY 2416964 (NSC825713), GNF351 (NSC835774), CH-223191 (NSC835775), CPI-455 (NSC825282), aza-TdCyd (NSC777586), decitabine (NSC127716), belinostat (NSC758774), entinostat (NSC756642), pevonedistat (NSC761192), tazemetostat (NSC777109), talazoparib (NSC765396), olaparib (NSC753686), selinexor (NSC780203), nedisertib (M3814, NSC802822), bortezomib (NSC756655), venetoclax (NSC766270), doxorubicin (NSC123127), elimusertib (BAY189344, NSC800525), ceralasertib (AZD6738, NSC777638), TAK-243 (NSC785004), alisertib (NSC759677), etoposide (NSC141540), topotecan (NSC609699), eribulin (NSC707389), gemcitabine (NSC613327), carboplatin (NSC241240), cisplatin (NSC119875), and SN-38 (NSC673596) were obtained from the National Cancer Institute (NCI) Developmental Therapeutics Program Chemical Repository (32). The FDA-approved anticancer drug set is available from the Developmental Therapeutics Program at https://dtp.cancer.gov/organization/dscb/obtaining/available plates.htm. […] The stock solutions were prepared in dimethyl sulfoxide (DMSO, Sigma-Aldrich, St. Louis, MO, cat. D2650), except for the platinum compounds which were prepared in saline (Quality Biological, Gaithersburg, MD, cat. 114-055-101), at 800-fold the tested concentration and stored at -70 degrees C prior to their use. All drugs and investigational agents were tested over a range starting from a high concentration at or near the clinical Cmax and decreasing in half-log increments. If the clinical Cmax for an agent had not been determined, the highest concentration tested was 10 microM (Table 1).
Cell Culture. All cells were maintained in an incubator at 37 degrees C and 5% CO2 with 95% humidity. The PDC lines were cultured according to standard operating procedures established by the NCI PDMR (https://pdmr.cancer.gov). Briefly, all PDCs were thawed and cultured in Matrigel-coated flasks prepared with a working solution of 1X Ham's F-12 nutrient mix, without supplementation (Invitrogen, Waltham, MA, cat. 11765054), 100 U/mL penicillin-streptomycin (Invitrogen, cat. 15140122), and 2.5% Matrigel (Corning Inc., Corning, NY, cat. 354248) for the first three passages. All PDCs were cultured in complete DMEM/F-12 media containing advanced DMEM/F-12 (Invitrogen, cat. 12634028), 4.9% defined fetal bovine serum, heat inactivated (HyClone Laboratories Inc., Logan, UT, cat. SH30070.03HI), 389 ng/mL hydrocortisone (Sigma-Aldrich, cat. H4001), 9.7 ng/mL human EGF recombinant protein (Invitrogen, cat. PHG0313), 23.4 microg/mL adenine (Sigma-Aldrich, cat. A2786), 97.3 U/mL penicillin-streptomycin (Invitrogen, cat. 15140122), 1.9 mM L-glutamine (Invitrogen, cat. 25030081), and 9.7 microM Y-27632 dihydrochloride (Tocris Bioscience, Bristol, United Kingdom, cat. 1254). The PDCs were cultured in complete DMEM/F12 media without 10 microM Y-27632 dihydrochloride for at least two passages prior to the screen. The established cell lines NCI-H1341 and […] were cultured in DMEM/F-12, HEPES (Invitrogen, cat. 11330032), 5% defined fetal bovine serum (HyClone Laboratories Inc., cat. SH30070.03), ITS premix universal culture supplement [insulin (5 microg/mL), transferrin (5 microg/mL), and selenious acid (5 ng/mL)] […]

[1] = curve of first compound, second compound 0.1 µM
[2] = curve of first compound, second compound 0.316 µM
[3] = curve of first compound, second compound 1 µM
[4] = curve of first compound, second compound 3.16 µM
[5] = curve of first compound, second compound 10 µM
[6] = second compound 0.1 µM, first compound 0.0316 µM
[7] = second compound 0.1 µM, first compound 0.1 µM
[8] = second compound 0.1 µM, first compound 0.316 µM
[9] = second compound 0.1 µM, first compound 1 µM
[10] = second compound 0.1 µM, first compound 3.16 µM
[11] = second compound 0.1 µM, first compound 10 µM
[12] = second compound 0.316 µM, first compound 0.0316 µM
[13] = second compound 0.316 µM, first compound 0.1 µM
[14] = second compound 0.316 µM, first compound 0.316 µM
[15] = second compound 0.316 µM, first compound 1 µM
[16] = second compound 0.316 µM, first compound 3.16 µM
[17] = second compound 0.316 µM, first compound 10 µM
[18] = second compound 1 µM, first compound 0.0316 µM
[19] = second compound 1 µM, first compound 0.1 µM
[20] = second compound 1 µM, first compound 0.316 µM
[21] = second compound 1 µM, first compound 1 µM
[22] = second compound 1 µM, first compound 3.16 µM
[23] = second compound 1 µM, first compound 10 µM
[24] = second compound 3.16 µM, first compound 0.0316 µM
[25] = second compound 3.16 µM, first compound 0.1 µM
[26] = second compound 3.16 µM, first compound 0.316 µM
[27] = second compound 3.16 µM, first compound 1 µM
[28] = second compound 3.16 µM, first compound 3.16 µM
[29] = second compound 3.16 µM, first compound 10 µM
[30] = second compound 10 µM, first compound 0.0316 µM
[31] = second compound 10 µM, first compound 0.1 µM
[32] = second compound 10 µM, first compound 0.316 µM
[33] = second compound 10 µM, first compound 1 µM
[34] = second compound 10 µM, first compound 3.16 µM
[35] = second compound 10 µM, first compound 10 µM

SMILES | IC50 [1] [µM] | IC50 [2] [µM] | IC50 [3] [µM] | IC50 [4] [µM] | IC50 [5] [µM] | viability, T/C [6] [%] | viability, T/C [7] [%] | viability, T/C [8] [%] | viability, T/C [9] [%] | viability, T/C [10] [%] | viability, T/C [11] [%] | viability, T/C [12] [%] | viability, T/C [13] [%] | viability, T/C [14] [%] | viability, T/C [15] [%] | viability, T/C [16] [%] | viability, T/C [17] [%] | viability, T/C [18] [%] | viability, T/C [19] [%] | viability, T/C [20] [%] | other results
COc1ccc([C@@H](O)c2cc(-c3ncnc4cc(N5CCOCC5)ccc34)c(F)cc2Cl)nn1 + CC(CO)NC(=O)c1cc(-c2ccc(Cl)cc2)nn(-c2cnn(C)c2)c1=O | 2.57 | 2.94 | 3.61 | 3.36 | 2.35 | 101 | 107 | 97.6 | 75 | 45.3 | 23.8 | 105 | 105 | 102 | 80.4 | 48.6 | 24.4 | 114 | 115 | 107 | viability, T/C [21]: 87.4%; viability, T/C [22]: 52.9%; viability, T/C [23]: 28.6%; viability, T/C [24]: 99.2%; viability, T/C [25]: 102%; viability, T/C [26]: 87.3%; viability, T/C [27]: 77.5%; viability, T/C [28]: 50.5%; viability, T/C [29]: 27.7%; viability, T/C [30]: 98%; viability, T/C [31]: 96.6%; viability, T/C [32]: 85.4%; viability, T/C [33]: 69%; viability, T/C [34]: 43.3%; viability, T/C [35]: 26.2%
CC1(C)CCC(CN2CCN(c3ccc(C(=O)NS(=O)(=O)c4ccc(NCC5CCOCC5)c([N+](=O)[O-])c4)c(Oc4cnc5[nH]ccc5c4)c3)CC2)=C(c2ccc(Cl)cc2)C1 + Cc1ccccc1N=Nc1ccc(NC(=O)c2ccnn2C)c(C)c1 | > 10 | > 10 | > 10 | > 10 | > 10 | 102 | 101 | 102 | 95.7 | 99.2 | 52.7 | 102 | 106 | 106 | 103 | 105 | 53 | 102 | 113 | 107 | viability, T/C [21]: 112%; viability, T/C [22]: 104%; viability, T/C [23]: 56.9%; viability, T/C [24]: 103%; viability, T/C [25]: 115%; viability, T/C [26]: 108%; viability, T/C [27]: 112%; viability, T/C [28]: 109%; viability, T/C [29]: 54.2%; viability, T/C [30]: 109%; viability, T/C [31]: 107%; viability, T/C [32]: 105%; viability, T/C [33]: 108%; viability, T/C [34]: 105%; viability, T/C [35]: 57.3%
O=C(C=Cc1cccc(S(=O)(=O)Nc2ccccc2)c1)NO | – | – | – | – | – | – | – | – | – | – | – | – | – | – | – | – | – | – | – | – | viability, T/C (compound 0.0316 µM): 94.1% and 97.8% and 90.4%; viability, T/C (compound 0.1 µM): 93.2% and 88% and 88.8%; viability, T/C (compound 0.316 µM): 76.5% and 73.4% and 70.6%; viability, T/C (compound 1 µM): 59.4% and 55.6% and 52.8%; viability, T/C (compound 3.16 µM): 30.6% and 24.4% and 27.7%; viability, T/C (compound 10 µM): 7.78% and 5.16% and 5.95%; IC50 (curve of compound): 1.41 µM and 1.12 µM and 1.11 µM
COc1cccc2c1C(=O)c1c(O)c3c(c(O)c1C2=O)CC(O)(C(=O)CO)CC3OC1CC(N)C(O)C(C)O1 (configuration not stated) + Cc1ccccc1N=Nc1ccc(NC(=O)c2ccnn2C)c(C)c1 | 0.139 | 0.164 | 0.231 | 0.269 | 0.391 | 60.9 | 48.8 | 42.5 | 23.8 | 1.63 | 0.98 | 61.6 | 51.7 | 43.6 | 23.7 | 1.72 | 1.7 | 63.4 | 53.2 | 48 | viability, T/C [21]: 22.3%; viability, T/C [22]: 1.44%; viability, T/C [23]: 1%; viability, T/C [24]: 65.3%; viability, T/C [25]: 59.4%; viability, T/C [26]: 48%; viability, T/C [27]: 23%; viability, T/C [28]: 1.21%; viability, T/C [29]: 1.15%; viability, T/C [30]: 63.4%; viability, T/C [31]: 62.2%; viability, T/C [32]: 55%; viability, T/C [33]: 25.1%; viability, T/C [34]: 1.08%; viability, T/C [35]: 1.24%
